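Tested at 5 concentrations; 48 h exposure; 96-well plates; endpoints linearly interpolated, else capped at highest concentration. The concentration for 50% growth inhibition is given as GI50.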 The source made the active and inactive calls. No stated cut-off is given here; in the data, active = GI50 up to about 1.1 µM and inactive = higher.
Legend:
Assay in all cases: NCI-60 cell line screen, 48 h
786-0 = test system: 786-0
A498 = test system: A498
A549 = test system: A549
ACHN = test system: ACHN
BT-549 = test system: BT-549
CAKI-1 = test system: CAKI-1
CCRF-CEM = test system: CCRF-CEM
COLO 205 = test system: COLO 205
DU-145 = test system: DU-145
EKVX = test system: EKVX
HCC 2998 = test system: HCC 2998
HCT-116 = test system: HCT-116
HCT-15 = test system: HCT-15
HL-60 = test system: HL-60
HOP-92 = test system: HOP-92
HT-29 = test system: HT-29
Hs-578T = test system: Hs-578T
IGROV-1 = test system: IGROV-1
K562 = test system: K562
KM12 = test system: KM12
LOX IMVI = test system: LOX IMVI
M14 = test system: M14
MCF7 = test system: MCF7
MDA-MB-231 = test system: MDA-MB-231
MDA-MB-435 = test system: MDA-MB-435
MDA-N = test system: MDA-N
MOLT-4 = test system: MOLT-4
Malme-3M = test system: Malme-3M
NCI-H226 = test system: NCI-H226
NCI-H23 = test system: NCI-H23
NCI-H460 = test system: NCI-H460
NCI-H522 = test system: NCI-H522
NCI/ADR-RES = test system: NCI/ADR-RES
OVCAR-3 = test system: OVCAR-3
OVCAR-4 = test system: OVCAR-4
OVCAR-5 = test system: OVCAR-5
OVCAR-8 = test system: OVCAR-8
PC-3 = test system: PC-3
RPMI-8226 = test system: RPMI-8226
SF-268 = test system: SF-268
SF-295 = test system: SF-295
SF-539 = test system: SF-539
SK-MEL-28 = test system: SK-MEL-28
SK-MEL-2 = test system: SK-MEL-2
SK-MEL-5 = test system: SK-MEL-5
SK-OV-3 = test system: SK-OV-3
SN12C = test system: SN12C
SNB-19 = test system: SNB-19
SNB-75 = test system: SNB-75
SW-620 = test system: SW-620
T47D = test system: T47D
TK-10 = test system: TK-10
U-251 = test system: U-251
UACC-257 = test system: UACC-257
HOP-62 = test system: HOP-62
RXF 393 = test system: RXF 393
UACC-62 = test system: UACC-62
UO-31 = test system: UO-31

For CCCCCC/C=C/C#CCCCCCCCC(=O)O, the GI50 (786-0) was > 100 µM (inactive), the GI50 (A498) was > 100 µM (inactive) and the GI50 (A549) was > 100 µM (inactive). For the same molecule, the GI50 (ACHN) was > 100 µM (inactive), the GI50 (BT-549) was > 100 µM (inactive) and the GI50 (CAKI-1) was > 100 µM (inactive). For the same molecule, the GI50 (CCRF-CEM) was 82.4 µM (inactive), the GI50 (COLO 205) was > 100 µM (inactive) and the GI50 (DU-145) was > 100 µM (inactive). For the same molecule, the GI50 (EKVX) was > 100 µM (inactive), the GI50 (HCC 2998) was > 100 µM (inactive) and the GI50 (HCT-116) was > 100 µM (inactive). The GI50 (HCT-15) was greater than 100 µM, the GI50 (HL-60) was > 100 µM (inactive) and the GI50 (HOP-92) was > 100 µM (inactive). For the same molecule, the GI50 (HT-29) was > 100 µM (inactive), the GI50 (Hs-578T) was > 100 µM (inactive) and the GI50 (IGROV-1) was > 100 µM (inactive). For the same molecule, the GI50 (K562) was > 100 µM (inactive), the GI50 (KM12) was > 100 µM (inactive) and the GI50 (LOX IMVI) was > 100 µM (inactive). For the same molecule, the GI50 (M14) was > 100 µM (inactive), the GI50 (MCF7) was > 100 µM (inactive) and the GI50 (MDA-MB-231) was > 100 µM (inactive). For the same molecule, the GI50 (MDA-MB-435) was > 100 µM (inactive), the GI50 (MDA-N) was > 100 µM (inactive) and the GI50 (MOLT-4) was 78.2 µM (inactive). For the same molecule, the GI50 (Malme-3M) was > 100 µM (inactive), the GI50 (NCI-H226) was > 100 µM (inactive) and the GI50 (NCI-H23) was > 100 µM (inactive). The GI50 (NCI-H460) was > 100 µM (inactive), the GI50 (NCI-H522) was > 100 µM (inactive) and the GI50 (NCI/ADR-RES) was > 100 µM (inactive). For the same molecule, the GI50 (OVCAR-3) was > 100 µM (inactive), the GI50 (OVCAR-4) was > 100 µM (inactive) and the GI50 (OVCAR-5) was > 100 µM (inactive). For the same molecule, the GI50 (OVCAR-8) was > 100 µM (inactive), the GI50 (PC-3) was > 100 µM (inactive) and the GI50 (RPMI-8226) was > 100 µM (inactive). The GI50 (SF-268) was > 100 µM (inactive), the GI50 (SF-295) was > 100 µM (inactive) and the GI50 (SF-539) was > 100 µM (inactive). For the same molecule, the GI50 (SK-MEL-28) was > 100 µM (inactive), the GI50 (SK-MEL-2) was > 100 µM (inactive) and the GI50 (SK-MEL-5) was > 100 µM (inactive). For the same molecule, the GI50 (SK-OV-3) was > 100 µM (inactive), the GI50 (SN12C) was > 100 µM (inactive) and the GI50 (SNB-19) was > 100 µM (inactive). The GI50 (SNB-75) was > 100 µM (inactive), the GI50 (SW-620) was > 100 µM (inactive) and the GI50 (T47D) was > 100 µM (inactive). The GI50 (TK-10) was > 100 µM (inactive), the GI50 (U-251) was > 100 µM (inactive) and the GI50 (UACC-257) was > 100 µM (inactive).

With CC(=O)OC1=c2ccccc2=C(O)C2C1C=NN2C(C)=O (configuration not stated) the GI50 (786-0) was > 100 µM (inactive), the GI50 (A498) was > 100 µM (inactive) and the GI50 (A549) was > 100 µM (inactive). For the same molecule, the GI50 (ACHN) was > 100 µM (inactive), the GI50 (BT-549) was > 100 µM (inactive) and the GI50 (CAKI-1) was > 100 µM (inactive). The GI50 (CCRF-CEM) was > 100 µM (inactive), the GI50 (COLO 205) was 95.3 µM (inactive) and the GI50 (DU-145) was > 100 µM (inactive). For the same molecule, the GI50 (EKVX) was 79.4 µM (inactive), the GI50 (HCC 2998) was > 100 µM (inactive) and the GI50 (HCT-116) was > 100 µM (inactive). For the same molecule, the GI50 (HCT-15) was greater than 100 µM, the GI50 (HL-60) was > 100 µM (inactive) and the GI50 (HOP-62) was > 100 µM (inactive). For the same molecule, the GI50 (HOP-92) was > 100 µM (inactive), the GI50 (HT-29) was > 100 µM (inactive) and the GI50 (Hs-578T) was 88.5 µM (inactive). The GI50 (IGROV-1) was 99.3 µM (inactive), the GI50 (K562) was 18.4 µM (inactive) and the GI50 (KM12) was > 100 µM (inactive). The GI50 (LOX IMVI) was > 100 µM (inactive), the GI50 (M14) was > 100 µM (inactive) and the GI50 (MCF7) was > 100 µM (inactive). For the same molecule, the GI50 (MDA-MB-231) was > 100 µM (inactive), the GI50 (MDA-MB-435) was > 100 µM (inactive) and the GI50 (MDA-N) was > 100 µM (inactive). The GI50 (MOLT-4) was > 100 µM (inactive), the GI50 (Malme-3M) was 44.3 µM (inactive) and the GI50 (NCI-H226) was > 100 µM (inactive). For the same molecule, the GI50 (NCI-H23) was > 100 µM (inactive), the GI50 (NCI-H460) was > 100 µM (inactive) and the GI50 (NCI-H522) was > 100 µM (inactive). The GI50 (NCI/ADR-RES) was > 100 µM (inactive), the GI50 (OVCAR-3) was > 100 µM (inactive) and the GI50 (OVCAR-4) was > 100 µM (inactive). For the same molecule, the GI50 (OVCAR-5) was > 100 µM (inactive), the GI50 (OVCAR-8) was > 100 µM (inactive) and the GI50 (PC-3) was > 100 µM (inactive). The GI50 (RPMI-8226) was > 100 µM (inactive), the GI50 (RXF 393) was > 100 µM (inactive) and the GI50 (SF-268) was > 100 µM (inactive). For the same molecule, the GI50 (SF-295) was > 100 µM (inactive), the GI50 (SF-539) was > 100 µM (inactive) and the GI50 (SK-MEL-28) was > 100 µM (inactive). For the same molecule, the GI50 (SK-MEL-2) was > 100 µM (inactive), the GI50 (SK-MEL-5) was > 100 µM (inactive) and the GI50 (SK-OV-3) was > 100 µM (inactive). For the same molecule, the GI50 (SN12C) was > 100 µM (inactive), the GI50 (SNB-19) was > 100 µM (inactive) and the GI50 (SNB-75) was 36.7 µM (inactive). The GI50 (SW-620) was > 100 µM (inactive), the GI50 (T47D) was > 100 µM (inactive) and the GI50 (TK-10) was > 100 µM (inactive). The GI50 (U-251) was > 100 µM (inactive), the GI50 (UACC-257) was > 100 µM (inactive) and the GI50 (UACC-62) was > 100 µM (inactive). The GI50 (UO-31) was > 100 µM (inactive).
